This passage reports IC50 and inhibition results from ChEMBL document CHEMBL1629448, “Identification and synthesis of novel inhibitors of acetyl-CoA carboxylase with in vitro and in vivo efficacy on fat oxidation” (J Med Chem, 2010).

A short description of assay [1]: (§1) Inhibition of N-terminal His-tagged rat recombinant ACC2 expressed in high five insect cells by ATP consumption assay.
Another assay concerns the target Acetyl-CoA carboxylase 2 (Homo sapiens, UniProt O00763). In words: Inhibition of N-terminal His-tagged human recombinant ACC2 expressed in high five insect cells by ATP consumption assay.
The target in assay [2] is Acetyl-CoA carboxylase 1 (Homo sapiens, UniProt Q13085). In words: Inhibition of N-terminal His-tagged human recombinant ACC1 expressed in high five insect cells by ATP consumption assay.
Assay [3] addresses Acetyl-CoA carboxylase 1 (Rattus norvegicus, UniProt P11497). The assay is described as follows: (§2) Inhibition of N-terminal His-tagged rat recombinant ACC1 expressed in high five insect cells by ATP consumption assay.
Another assay is filed under the species Rattus norvegicus. The assay is described as §1.
Assay [4] addresses Acetyl-CoA carboxylase 1 (Rattus norvegicus) (UniProt P11497). The description is as §2.

SMILES strings stand for the structures. Activity calls are given as the source filed them. No cut-off for these calls is given here.

Usually IC50 stands for the concentration that inhibits the measured activity by half.

Sequence of Acetyl-CoA carboxylase 2 (O00763 whole entry): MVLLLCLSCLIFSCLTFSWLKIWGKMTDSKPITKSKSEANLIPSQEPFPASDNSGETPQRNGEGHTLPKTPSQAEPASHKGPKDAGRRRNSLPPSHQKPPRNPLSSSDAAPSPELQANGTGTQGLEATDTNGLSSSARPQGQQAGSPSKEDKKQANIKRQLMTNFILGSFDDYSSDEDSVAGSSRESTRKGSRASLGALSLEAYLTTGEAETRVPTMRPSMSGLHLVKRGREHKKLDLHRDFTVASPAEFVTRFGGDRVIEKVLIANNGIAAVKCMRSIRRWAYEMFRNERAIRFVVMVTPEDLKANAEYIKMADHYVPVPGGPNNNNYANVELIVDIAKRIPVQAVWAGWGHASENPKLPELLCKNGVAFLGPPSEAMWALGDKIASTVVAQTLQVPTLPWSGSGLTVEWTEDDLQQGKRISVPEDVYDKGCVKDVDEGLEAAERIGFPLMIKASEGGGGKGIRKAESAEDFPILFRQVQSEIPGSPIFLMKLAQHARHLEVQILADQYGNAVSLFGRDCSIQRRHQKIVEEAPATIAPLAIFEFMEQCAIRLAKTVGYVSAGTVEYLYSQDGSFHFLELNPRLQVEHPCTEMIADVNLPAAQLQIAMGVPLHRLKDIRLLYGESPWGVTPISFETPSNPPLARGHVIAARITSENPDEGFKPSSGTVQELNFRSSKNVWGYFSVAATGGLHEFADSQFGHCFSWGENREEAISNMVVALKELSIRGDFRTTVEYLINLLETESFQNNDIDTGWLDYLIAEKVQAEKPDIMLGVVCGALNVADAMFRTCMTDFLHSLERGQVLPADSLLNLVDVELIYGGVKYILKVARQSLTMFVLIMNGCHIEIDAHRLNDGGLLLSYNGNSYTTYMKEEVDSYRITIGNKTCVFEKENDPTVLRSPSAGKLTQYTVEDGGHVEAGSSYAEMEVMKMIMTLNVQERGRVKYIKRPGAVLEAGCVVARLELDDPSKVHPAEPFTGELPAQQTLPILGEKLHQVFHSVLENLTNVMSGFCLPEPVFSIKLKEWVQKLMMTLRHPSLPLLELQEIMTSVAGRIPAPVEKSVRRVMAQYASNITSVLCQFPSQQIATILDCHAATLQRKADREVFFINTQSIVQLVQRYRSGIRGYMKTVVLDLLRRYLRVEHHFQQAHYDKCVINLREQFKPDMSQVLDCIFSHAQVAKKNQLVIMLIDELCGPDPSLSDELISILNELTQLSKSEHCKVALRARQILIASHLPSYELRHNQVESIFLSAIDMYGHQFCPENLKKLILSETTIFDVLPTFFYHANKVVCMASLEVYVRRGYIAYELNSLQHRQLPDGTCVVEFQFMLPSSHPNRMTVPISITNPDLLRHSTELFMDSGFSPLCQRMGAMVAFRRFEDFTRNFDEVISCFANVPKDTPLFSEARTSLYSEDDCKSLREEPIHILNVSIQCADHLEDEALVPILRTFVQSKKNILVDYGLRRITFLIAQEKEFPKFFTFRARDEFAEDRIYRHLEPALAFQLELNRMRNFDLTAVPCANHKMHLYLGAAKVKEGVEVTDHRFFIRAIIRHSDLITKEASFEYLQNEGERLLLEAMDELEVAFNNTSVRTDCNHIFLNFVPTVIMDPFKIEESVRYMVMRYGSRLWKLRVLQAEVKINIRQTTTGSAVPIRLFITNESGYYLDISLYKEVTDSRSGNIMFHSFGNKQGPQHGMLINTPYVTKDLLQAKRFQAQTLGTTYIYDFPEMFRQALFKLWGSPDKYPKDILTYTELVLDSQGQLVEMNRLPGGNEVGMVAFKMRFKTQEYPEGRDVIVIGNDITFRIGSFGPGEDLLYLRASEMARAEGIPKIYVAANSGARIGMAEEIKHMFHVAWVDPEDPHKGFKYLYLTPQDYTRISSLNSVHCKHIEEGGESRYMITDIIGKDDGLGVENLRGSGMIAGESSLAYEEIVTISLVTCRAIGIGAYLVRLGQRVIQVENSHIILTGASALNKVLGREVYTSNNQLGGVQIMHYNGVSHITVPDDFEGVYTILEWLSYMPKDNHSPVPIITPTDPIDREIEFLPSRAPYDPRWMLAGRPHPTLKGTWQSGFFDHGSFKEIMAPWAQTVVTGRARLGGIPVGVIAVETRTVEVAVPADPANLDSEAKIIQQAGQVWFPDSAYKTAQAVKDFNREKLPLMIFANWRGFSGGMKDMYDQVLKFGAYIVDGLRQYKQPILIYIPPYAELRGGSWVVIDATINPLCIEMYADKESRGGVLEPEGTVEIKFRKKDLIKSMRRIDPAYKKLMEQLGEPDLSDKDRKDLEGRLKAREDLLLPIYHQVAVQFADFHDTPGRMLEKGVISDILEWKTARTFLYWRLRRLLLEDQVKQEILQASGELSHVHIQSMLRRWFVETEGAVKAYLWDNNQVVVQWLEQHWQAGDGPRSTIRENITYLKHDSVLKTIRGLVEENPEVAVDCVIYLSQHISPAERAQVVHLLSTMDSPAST

For `CC(=O)NCCCC1OCC(Cc2cccc(OCCC3CCCC3)c2)CO1` (centres undefined), the IC50 in assay [1] worked out at 17000 nM; at Acetyl-CoA carboxylase 2, 270 nM; on Acetyl-CoA carboxylase 1 [2] it was 2700 nM; on Acetyl-CoA carboxylase 1 [3], 25000 nM.

As to `O=C(c1c2ccccc2cc2ccccc12)N1CCC(N2CCC[C@@H](C(=O)N3CCOCC3)C2)CC1`, the half-maximal inhibitory concentration (IC50) came to 280 nM in assay [1], 70 nM on Acetyl-CoA carboxylase 2 and 910 nM at Acetyl-CoA carboxylase 1 [2].

Turning to `CC(=O)NCCCC1OCC(c2cccc3cc(OC4CCCC4)ccc23)CO1` (centres undefined), the inhibition entry (in the assay filed under Rattus norvegicus; at Acetyl-CoA carboxylase 1 [2]; in assay [4]) was “inactive” in each case. Besides, the IC50 in assay [1] was over 30000 nM; on Acetyl-CoA carboxylase 2, 630 nM; on Acetyl-CoA carboxylase 1 [2] it was over 30000 nM; at Acetyl-CoA carboxylase 1 [3], over 30000 nM.

For `CC(=O)NCCC[C@H]1OC[C@@H](Oc2ccc(OCc3ccccc3)cc2)CO1`, the IC50 on Acetyl-CoA carboxylase 2 is over 30000 nM.

For `CC(=O)N[C@H](C)CCc1ccc(Oc2ccc(OC(C)C)nc2)cc1`, the IC50 is over 30000 nM in assay [1], 7800 nM on Acetyl-CoA carboxylase 2, 9900 nM at Acetyl-CoA carboxylase 1 [2] and over 30000 nM at Acetyl-CoA carboxylase 1 [3].

As for `CC(=O)NCCC[C@H]1OC[C@H](Oc2ccc(OCc3ccccc3)cc2)CO1`, the half-inhibitory concentration (IC50) (in assay [1]; on Acetyl-CoA carboxylase 1 [2]; at Acetyl-CoA carboxylase 1 [3]) was over 30000 nM in each case.

For `CC(CCc1ccc(Oc2ccc(OC(C)C)nc2)cc1)NC(=O)C1CC1` (centres undefined), the half-maximal inhibitory concentration (IC50) came out at 1900 nM in assay [1], 190 nM on Acetyl-CoA carboxylase 2, 620 nM on Acetyl-CoA carboxylase 1 [2] and 3200 nM at Acetyl-CoA carboxylase 1 [3].

In the case of `CC(CCc1ccc(Oc2ccc(OC(C)C)nc2)cc1)NC=O` (centres undefined), the IC50 in assay [1] stood at 17000 nM; on Acetyl-CoA carboxylase 1 [2] it was 5700 nM; on Acetyl-CoA carboxylase 1 [3], 11000 nM.

In the case of `CC(=O)NCCCc1ccc(Oc2ccc(OC3CCCC3)cn2)cc1`, the 50% inhibitory concentration (IC50) in assay [1] was over 30000 nM; at Acetyl-CoA carboxylase 2, 1280 nM; on Acetyl-CoA carboxylase 1 [2], over 30000 nM; on Acetyl-CoA carboxylase 1 [3], over 30000 nM.

For `CC(=O)N[C@@H](C)CO[C@H]1CC[C@H](Oc2ccc(OC(C)C)nc2)CC1`, the IC50 worked out at 600 nM in assay [1], 60 nM on Acetyl-CoA carboxylase 2, 2300 nM on Acetyl-CoA carboxylase 1 [2] and 10500 nM on Acetyl-CoA carboxylase 1 [3].

For `CC(C)Oc1ccc(Oc2ccc(CC[C@H](C)NC(=O)C3CC3)cc2)cn1`, the half-inhibitory concentration (IC50) in assay [1] was 700 nM; at Acetyl-CoA carboxylase 2 it was 80 nM; at Acetyl-CoA carboxylase 1 [2], 360 nM; at Acetyl-CoA carboxylase 1 [3], 800 nM.

Turning to `CC(=O)N[C@H](C)CCc1ccc(Oc2ccc(OCc3ccccc3)cn2)cc1`, the IC50 on Acetyl-CoA carboxylase 2 was over 30000 nM.

On to `CC(=O)NCCC[C@H]1OC[C@H](Oc2ccc(OCc3ccccc3)cn2)CO1`, for which the IC50 in assay [1] was over 30000 nM; on Acetyl-CoA carboxylase 2 it was 70 nM; on Acetyl-CoA carboxylase 1 [2] it was 14600 nM; at Acetyl-CoA carboxylase 1 [3], 14000 nM.

For `CC(CCc1ccc(Oc2ccc(OC(C)C)nc2)cc1)NC(N)=O` (centres undefined), the IC50 in assay [1] turned out to be 3000 nM; on Acetyl-CoA carboxylase 1 [2], 1200 nM; on Acetyl-CoA carboxylase 1 [3] it was 2900 nM.

Turning to `CC(=O)N[C@@H](C)C#Cc1cnc(Oc2ccc(OC(C)C)cc2)s1`, the IC50 was 380 nM in assay [1], 60 nM on Acetyl-CoA carboxylase 2, over 10000 nM at Acetyl-CoA carboxylase 1 [2] and over 10000 nM on Acetyl-CoA carboxylase 1 [3].

For the molecule `CC(=O)NCCCC1OCC(Cc2cccc(OCCC3CC3)c2)CO1` (centres undefined), the IC50 in assay [1] was over 30000 nM; at Acetyl-CoA carboxylase 2 it was 2650 nM; on Acetyl-CoA carboxylase 1 [2] it was over 30000 nM; on Acetyl-CoA carboxylase 1 [3] it was over 30000 nM.

Regarding `CC(=O)NCCCC1OCC(Cc2cccc(OCC3CCC3)c2)CO1` (centres undefined), the IC50 in assay [1] is over 30000 nM; at Acetyl-CoA carboxylase 2, 700 nM; at Acetyl-CoA carboxylase 1 [2], 21000 nM; on Acetyl-CoA carboxylase 1 [3] it was over 30000 nM.

For `CC(=O)NC(C)CCc1ccc(OC2=NCC(OC(C)C)N=C2)cc1` (centres undefined), the half-inhibitory concentration (IC50) in assay [1] is over 30000 nM; at Acetyl-CoA carboxylase 2, 1200 nM; on Acetyl-CoA carboxylase 1 [2], over 30000 nM; at Acetyl-CoA carboxylase 1 [3], over 30000 nM.

Take `CC(=O)N[C@@H](C)CCc1ccc(Oc2ccc(OC(C)C)cn2)cc1`: the concentration for half-maximal inhibition (IC50) was determined as 6750 nM in assay [1], 1800 nM at Acetyl-CoA carboxylase 1 [2] and 2600 nM on Acetyl-CoA carboxylase 1 [3].

`CC(=O)NCCC[C@H]1OC[C@H](Oc2ccc(OC3CCCC3)cc2)CO1`: the half-inhibitory concentration (IC50) was 12000 nM in assay [1], 190 nM at Acetyl-CoA carboxylase 2, 3900 nM on Acetyl-CoA carboxylase 1 [2] and 13000 nM on Acetyl-CoA carboxylase 1 [3].

For `CC(=O)NC(C)CCc1ccc(Oc2ccc(OC3CCCC3)cn2)cc1` (centres undefined), the IC50 in assay [1] worked out at 7900 nM; at Acetyl-CoA carboxylase 1 [2] it was 1100 nM; at Acetyl-CoA carboxylase 1 [3], 2900 nM.

Regarding `CC(=O)NC(C)CCc1ccc(Oc2ccc(OCc3ccccc3)cn2)cc1` (centres undefined), the concentration for half-maximal inhibition (IC50) is over 30000 nM in assay [1], 210 nM at Acetyl-CoA carboxylase 2, 750 nM at Acetyl-CoA carboxylase 1 [2] and 2100 nM on Acetyl-CoA carboxylase 1 [3].

With `CC(=O)NC(C)CCc1ccc(Oc2ccc(OC(C)C)nn2)cc1` (centres undefined), the IC50 in assay [1] was over 30000 nM; at Acetyl-CoA carboxylase 2, 6700 nM; on Acetyl-CoA carboxylase 1 [2] it was 12700 nM; at Acetyl-CoA carboxylase 1 [3] it was over 30000 nM.

On to `CC(=O)N[C@@H](C)CCc1ccc(Oc2ccc(OCc3ccccc3)cn2)cc1`, for which the concentration for half-maximal inhibition (IC50) in assay [1] was over 30000 nM; on Acetyl-CoA carboxylase 1 [2], 920 nM; at Acetyl-CoA carboxylase 1 [3] it was 1200 nM.

On to `CC(=O)NC(C)CCc1ccc(Oc2ccc(OC(C)C)cn2)cc1` (centres undefined), for which the IC50 worked out at 4520 nM in assay [1], 1780 nM on Acetyl-CoA carboxylase 1 [2] and 2600 nM on Acetyl-CoA carboxylase 1 [3].

As for `CC(=O)NC(C)CCc1ccc(Oc2ccc(OCc3ccccc3)nc2)cc1` (centres undefined), the IC50 in assay [1] worked out at 7900 nM; at Acetyl-CoA carboxylase 2 it was 80 nM; on Acetyl-CoA carboxylase 1 [2], 1100 nM; at Acetyl-CoA carboxylase 1 [3] it was 700 nM.

`CC(=O)N[C@@H](C)CC[C@H]1CC[C@H](Oc2ccc(OC(C)C)nc2)CC1`: the half-inhibitory concentration (IC50) is 200 nM in assay [1], 15 nM at Acetyl-CoA carboxylase 2, 140 nM on Acetyl-CoA carboxylase 1 [2] and 1140 nM at Acetyl-CoA carboxylase 1 [3].

`COC(=O)NC(C)CCc1ccc(Oc2ccc(OC(C)C)nc2)cc1` (centres undefined): the half-maximal inhibitory concentration (IC50) in assay [1] came to 3900 nM; at Acetyl-CoA carboxylase 2 it was 250 nM; at Acetyl-CoA carboxylase 1 [2], 1200 nM; on Acetyl-CoA carboxylase 1 [3], 2900 nM.

On to `CC(=O)NCCCC1OCC(Cc2cccc(OCCc3ccccc3)c2)CO1` (centres undefined), for which the IC50 in assay [1] is over 30000 nM; on Acetyl-CoA carboxylase 2 it was 2100 nM; at Acetyl-CoA carboxylase 1 [2] it was over 30000 nM; at Acetyl-CoA carboxylase 1 [3] it was over 30000 nM.

As for `CC(=O)NC(C)CCc1ccc(Oc2cnc(OC(C)C)nc2)cc1` (centres undefined), the 50% inhibitory concentration (IC50) in assay [1] stood at 20000 nM; at Acetyl-CoA carboxylase 2 it was 700 nM; on Acetyl-CoA carboxylase 1 [2] it was 3000 nM; at Acetyl-CoA carboxylase 1 [3] it was 7400 nM.
